Measured values taken from patent publication US9340590B2 (priority 2011, dated 2016).
Read-outs that look alike come from different tables or passages of the source. Positions of bridges follow the written chain, without caps; N, C: chain ends. Non-standard residues stand in square brackets, D forms with d. Residues, ends and D or L forms follow the SMILES beside them. Lys(Me2) = CN(C)CCCC[C@H](N)C(=O)O; Abu = CC[C@H](N)C(=O)O

Columns and labels:
Assay in all cases: cell-based
hNav1.7 [1] = target: T1, hNav1.7 (Homo sapiens, UniProt Q15858); conditions: Nav1.7 Use IC50
T1 sequence (Q15858 whole entry, looked up): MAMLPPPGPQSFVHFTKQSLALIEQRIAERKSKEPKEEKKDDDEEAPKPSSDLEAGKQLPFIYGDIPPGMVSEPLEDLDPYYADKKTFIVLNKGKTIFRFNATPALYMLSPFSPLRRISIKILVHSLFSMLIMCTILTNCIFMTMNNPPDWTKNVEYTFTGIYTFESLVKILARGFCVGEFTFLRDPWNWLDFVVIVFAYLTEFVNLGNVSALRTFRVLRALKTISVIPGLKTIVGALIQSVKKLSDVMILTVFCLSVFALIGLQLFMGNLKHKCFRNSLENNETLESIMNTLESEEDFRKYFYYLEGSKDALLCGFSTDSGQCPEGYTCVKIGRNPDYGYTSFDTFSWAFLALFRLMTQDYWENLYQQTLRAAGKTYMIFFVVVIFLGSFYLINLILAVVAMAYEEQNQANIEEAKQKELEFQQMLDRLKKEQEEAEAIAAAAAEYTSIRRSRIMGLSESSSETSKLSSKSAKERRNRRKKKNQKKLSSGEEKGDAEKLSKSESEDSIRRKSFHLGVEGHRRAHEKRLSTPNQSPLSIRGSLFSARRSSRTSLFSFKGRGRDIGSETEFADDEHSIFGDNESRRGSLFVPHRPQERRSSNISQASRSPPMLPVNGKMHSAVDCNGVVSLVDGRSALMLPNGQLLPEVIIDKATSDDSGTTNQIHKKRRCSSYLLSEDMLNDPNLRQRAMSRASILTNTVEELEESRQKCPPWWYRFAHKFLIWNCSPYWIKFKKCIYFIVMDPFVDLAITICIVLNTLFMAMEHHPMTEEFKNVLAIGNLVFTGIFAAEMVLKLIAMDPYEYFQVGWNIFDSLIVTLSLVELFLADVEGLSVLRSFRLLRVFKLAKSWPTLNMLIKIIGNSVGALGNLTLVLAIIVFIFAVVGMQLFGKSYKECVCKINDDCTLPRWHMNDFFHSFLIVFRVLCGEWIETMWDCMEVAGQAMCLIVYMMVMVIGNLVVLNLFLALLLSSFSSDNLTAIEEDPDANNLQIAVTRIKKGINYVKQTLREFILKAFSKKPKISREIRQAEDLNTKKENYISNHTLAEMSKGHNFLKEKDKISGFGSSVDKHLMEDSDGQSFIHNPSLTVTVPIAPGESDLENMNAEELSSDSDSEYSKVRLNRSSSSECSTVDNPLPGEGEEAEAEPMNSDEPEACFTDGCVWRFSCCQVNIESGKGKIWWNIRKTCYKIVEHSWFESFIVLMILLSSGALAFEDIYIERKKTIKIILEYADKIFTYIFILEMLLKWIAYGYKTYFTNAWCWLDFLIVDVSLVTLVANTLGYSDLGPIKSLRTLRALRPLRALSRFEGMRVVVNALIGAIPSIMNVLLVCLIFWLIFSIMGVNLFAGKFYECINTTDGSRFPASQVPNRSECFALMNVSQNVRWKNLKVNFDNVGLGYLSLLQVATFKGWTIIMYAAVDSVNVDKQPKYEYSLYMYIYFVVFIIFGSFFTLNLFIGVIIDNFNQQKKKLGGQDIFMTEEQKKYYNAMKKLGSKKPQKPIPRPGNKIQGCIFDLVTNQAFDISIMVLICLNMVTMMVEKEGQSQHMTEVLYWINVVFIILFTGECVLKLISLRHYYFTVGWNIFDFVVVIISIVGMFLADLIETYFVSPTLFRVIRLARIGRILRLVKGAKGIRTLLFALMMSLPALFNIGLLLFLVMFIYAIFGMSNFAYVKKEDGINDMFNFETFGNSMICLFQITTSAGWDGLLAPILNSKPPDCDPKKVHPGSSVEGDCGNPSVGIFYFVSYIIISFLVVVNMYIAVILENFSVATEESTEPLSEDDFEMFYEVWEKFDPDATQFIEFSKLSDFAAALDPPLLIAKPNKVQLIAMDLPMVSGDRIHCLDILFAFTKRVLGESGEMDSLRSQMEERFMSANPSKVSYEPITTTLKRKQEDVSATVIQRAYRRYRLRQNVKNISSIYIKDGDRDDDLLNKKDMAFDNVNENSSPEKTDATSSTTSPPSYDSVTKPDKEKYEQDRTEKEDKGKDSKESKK

hNav1.5 [2] = target: T2, hNav1.5 (Homo sapiens, UniProt Q14524)
T2 sequence (Q14524 whole entry, looked up): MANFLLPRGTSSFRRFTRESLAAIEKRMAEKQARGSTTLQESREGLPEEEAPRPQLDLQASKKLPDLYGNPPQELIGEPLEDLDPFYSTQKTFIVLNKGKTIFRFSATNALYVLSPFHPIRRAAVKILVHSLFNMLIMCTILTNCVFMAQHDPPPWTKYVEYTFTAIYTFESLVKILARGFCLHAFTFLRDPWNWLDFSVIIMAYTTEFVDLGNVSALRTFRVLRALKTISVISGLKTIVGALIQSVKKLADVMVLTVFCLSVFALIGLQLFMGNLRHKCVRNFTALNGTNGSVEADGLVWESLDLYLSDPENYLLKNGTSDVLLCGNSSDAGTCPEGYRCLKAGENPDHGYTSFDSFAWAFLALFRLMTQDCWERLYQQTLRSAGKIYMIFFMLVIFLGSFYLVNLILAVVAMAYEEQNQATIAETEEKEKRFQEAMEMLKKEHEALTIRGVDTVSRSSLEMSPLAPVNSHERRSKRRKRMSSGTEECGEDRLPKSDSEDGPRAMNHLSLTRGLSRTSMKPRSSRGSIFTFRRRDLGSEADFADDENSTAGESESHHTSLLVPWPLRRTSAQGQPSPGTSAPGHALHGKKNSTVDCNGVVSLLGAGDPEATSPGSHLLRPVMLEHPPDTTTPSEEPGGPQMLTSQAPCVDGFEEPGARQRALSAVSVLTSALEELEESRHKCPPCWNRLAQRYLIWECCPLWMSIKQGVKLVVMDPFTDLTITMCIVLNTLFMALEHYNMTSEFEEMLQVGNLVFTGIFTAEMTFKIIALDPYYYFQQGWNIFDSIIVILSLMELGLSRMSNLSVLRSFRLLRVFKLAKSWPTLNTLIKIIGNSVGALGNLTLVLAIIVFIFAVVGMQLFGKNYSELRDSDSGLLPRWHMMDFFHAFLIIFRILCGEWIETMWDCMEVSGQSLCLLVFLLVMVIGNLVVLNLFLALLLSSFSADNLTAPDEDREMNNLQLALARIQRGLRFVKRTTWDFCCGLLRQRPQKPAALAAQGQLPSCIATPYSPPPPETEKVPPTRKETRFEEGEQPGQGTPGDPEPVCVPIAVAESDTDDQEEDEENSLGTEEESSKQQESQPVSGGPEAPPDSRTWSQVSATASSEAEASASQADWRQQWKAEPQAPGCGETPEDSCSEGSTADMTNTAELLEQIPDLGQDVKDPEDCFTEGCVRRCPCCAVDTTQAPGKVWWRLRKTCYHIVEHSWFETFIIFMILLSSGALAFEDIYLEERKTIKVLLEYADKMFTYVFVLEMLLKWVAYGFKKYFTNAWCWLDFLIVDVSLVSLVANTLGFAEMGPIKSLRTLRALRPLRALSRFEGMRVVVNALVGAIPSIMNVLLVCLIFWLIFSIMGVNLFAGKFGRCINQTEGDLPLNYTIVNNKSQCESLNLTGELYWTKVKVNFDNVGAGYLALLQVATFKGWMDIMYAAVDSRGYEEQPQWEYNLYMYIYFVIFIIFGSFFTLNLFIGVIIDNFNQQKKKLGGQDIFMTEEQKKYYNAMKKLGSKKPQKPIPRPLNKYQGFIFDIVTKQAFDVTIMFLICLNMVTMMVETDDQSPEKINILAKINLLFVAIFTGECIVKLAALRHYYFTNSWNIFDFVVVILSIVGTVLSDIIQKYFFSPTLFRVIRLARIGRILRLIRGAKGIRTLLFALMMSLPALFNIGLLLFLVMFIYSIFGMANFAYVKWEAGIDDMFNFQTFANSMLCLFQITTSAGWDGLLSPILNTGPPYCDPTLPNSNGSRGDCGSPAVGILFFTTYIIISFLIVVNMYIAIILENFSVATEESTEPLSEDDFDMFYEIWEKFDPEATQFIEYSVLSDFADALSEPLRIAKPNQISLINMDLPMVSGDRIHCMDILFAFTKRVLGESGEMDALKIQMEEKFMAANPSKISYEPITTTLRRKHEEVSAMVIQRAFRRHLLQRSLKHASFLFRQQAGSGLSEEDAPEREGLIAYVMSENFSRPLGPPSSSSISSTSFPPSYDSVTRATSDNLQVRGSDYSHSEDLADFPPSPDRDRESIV

hNav1.5 [3] = target: T2, hNav1.5; conditions: IonWorks Quattro; clamped to −110 mV, depolarized to −10 mV, 5 min after compound; n=2; read-out: IWQ Use Nav1.5
hNav1.7 [4] = target: T1, hNav1.7; type: cell-based
hNav1.3 = hNav1.3 (Homo sapiens, UniProt Q9NY46); conditions: IonWorks Quattro; clamped to −110 mV, depolarized to −10 mV, 5 min after compound; n=2; read-out: IWQ Use Nav1.3
[5] = IonWorks Quattro, clamped to −110 mV, depolarized to −10 mV, 5 min after compound, n=2, read-out: IWQ Use Nav1.7

| Compound | IC50 (hNav1.7 [1]) [nM] | IC50 (hNav1.5 [2]) [nM] | IC50 (hNav1.5 [3]) [nM] | IC50 (hNav1.7 [4]) [nM] | IC50 (hNav1.3) [nM] | IC50 (hNav1.5 [2]; read-out: Nav1.5 Use IC50) [nM] | IC50 (hNav1.7 [4]; [5]) [nM] |
| --- | --- | --- | --- | --- | --- | --- | --- |
| CC[C@H](C)[C@@H]1NC(=O)[C@@H]2CSSC[C@@H]3NC(=O)[C@H](C(C)C)NC(=O)[C@H](CC(C)C)NC(=O)[C@H](CC(N)=O)NC(=O)[C@@H]4CCCN4C(=O)[C@H](CCCNC(=N)N)NC(=O)[C@H](CSSC[C@H](NC(=O)[C@@H](N)CC(=O)O)C(=O)N[C@@H](CC(C)C)C(=O)NCC(=O)N[C@@H](C)C(=O)N[C@@H](Cc4ccccc4)C(=O)N[C@@H](CCCNC(=N)N)C(=O)N[C@@H](CCCCN)C(=O)N2)NC(=O)[C@H](CSSC[C@@H](C(=O)N[C@@H](CCCCN)C(=O)N[C@@H](Cc2ccc(O)cc2)C(=O)N[C@H](C(=O)N[C@@H](Cc2ccccc2)C(N)=O)C(C)C)NC(=O)[C@H](Cc2c[nH]c4ccccc24)NC(=O)[C@H](CCCNC(=N)N)NC(=O)[C@H](Cc2c[nH]cn2)NC(=O)[C@H](CC(C)C)NC(=O)[C@H](CCCNC(=N)N)NC(=O)[C@H](CO)NC3=O)NC(=O)[C@H](CCCCN)NC(=O)[C@H](CC(=O)O)NC(=O)[C@H](Cc2cn(CCOCCOCCOCCOCCOCCOCCOCCOCCOCCOCCOCCNC(=O)CSCCO)nn2)NC(=O)[C@H](CC(=O)O)NC(=O)[C@@H]2CCCN2C1=O | 35 | > 10000 | – | – | – | – | – |
| CC[C@@H]1NC(=O)[C@H](CC(=O)O)NC(=O)[C@@H]2CCCN2C(=O)[C@H](CCC(=O)O)NC(=O)[C@@H]2CSSC[C@@H]3NC(=O)[C@H](C(C)C)NC(=O)[C@H](CC(C)C)NC(=O)[C@H](CC(N)=O)NC(=O)[C@@H]4CCCN4C(=O)[C@H](CCCNC(=N)N)NC(=O)[C@H](CSSC[C@H](NC(=O)[C@@H](N)CC(=O)O)C(=O)N[C@@H](CC(C)C)C(=O)NCC(=O)N[C@@H](C)C(=O)N[C@@H](Cc4ccccc4)C(=O)N[C@@H](CCCNC(=N)N)C(=O)N[C@@H](CCCCN)C(=O)N2)NC(=O)[C@H](CSSC[C@@H](C(=O)N[C@@H](CCCCN)C(=O)N[C@@H](Cc2ccc(O)cc2)C(=O)N[C@H](C(=O)N[C@@H](Cc2ccccc2)C(N)=O)C(C)C)NC(=O)[C@H](Cc2c[nH]c4ccccc24)NC(=O)[C@H](CCCNC(=N)N)NC(=O)[C@H](Cc2c[nH]cn2)NC(=O)[C@H](CC(C)C)NC(=O)[C@H](CCCNC(=N)N)NC(=O)[C@H](CO)NC3=O)NC(=O)[C@H](CCCCN)NC(=O)[C@H](CC(=O)O)NC1=O (H-DCLGAFRKCEPD[Abu]DKCCRPNLVCSRLHRWCKYVF-NH2; disulfide 2-17, 9-23, 16-30) | 3.5 | > 10000 | – | – | – | – | – |
| CC[C@H](C)[C@@H]1NC(=O)[C@@H]2CSSC[C@@H]3NC(=O)[C@H](C(C)C)NC(=O)[C@H](CC(C)C)NC(=O)[C@H](CC(N)=O)NC(=O)[C@@H]4CCCN4C(=O)[C@H](CCCNC(=N)N)NC(=O)[C@H](CSSC[C@H](NC(=O)[C@@H](N)CC(=O)O)C(=O)N[C@@H](CC(C)C)C(=O)N[C@@H](CCCCN)C(=O)N[C@@H](Cc4ccccc4)C(=O)N[C@@H](CCSC)C(=O)N[C@@H](CCCNC(=N)N)C(=O)N[C@@H](CCCCN)C(=O)N2)NC(=O)[C@H](CSSC[C@@H](C(=O)N[C@@H](CCCCN)C(=O)N[C@@H](Cc2ccc(O)cc2)C(=O)N[C@H](C(=O)N[C@@H](Cc2ccccc2)C(N)=O)C(C)C)NC(=O)[C@H](Cc2c[nH]c4ccccc24)NC(=O)[C@H](CCCCN)NC(=O)[C@H](Cc2cnc[nH]2)NC(=O)[C@H]([C@@H](C)O)NC(=O)[C@H](CCCNC(=N)N)NC(=O)[C@H](CO)NC3=O)NC(=O)[C@H](CCCCN)NC(=O)[C@H](CC(=O)O)NC(=O)[C@H](CC(N)=O)NC(=O)[C@H](CC(=O)O)NC(=O)[C@@H]2CCCN2C1=O [SEQ ID NO: 39] (H-DCLKFMRKCIPDNDKCCRPNLVCSRTHKWCKYVF-NH2; disulfide 2-17, 9-23, 16-30) | – | 10600 | 9820 | 200 | 180 | – | – |
| CC[C@H](C)[C@@H]1NC(=O)[C@@H]2CSSC[C@@H]3NC(=O)[C@H](C(C)C)NC(=O)[C@H](CC(C)C)NC(=O)[C@H](CC(N)=O)NC(=O)[C@@H]4CCCN4C(=O)[C@H](CCCNC(=N)N)NC(=O)[C@H](CSSC[C@H](NC(=O)[C@@H](N)CC(=O)O)C(=O)N[C@@H](CC(C)C)C(=O)N[C@@H](CCCNC(=N)N)C(=O)N[C@@H](Cc4ccccc4)C(=O)N[C@@H](CCSC)C(=O)N[C@@H](CCCNC(=N)N)C(=O)N[C@@H](CCCCN)C(=O)N2)NC(=O)[C@H](CSSC[C@@H](C(=O)N[C@@H](CCCCN)C(=O)N[C@@H](Cc2ccc(O)cc2)C(=O)N[C@H](C(=O)N[C@@H](Cc2ccccc2)C(N)=O)C(C)C)NC(=O)[C@H](Cc2c[nH]c4ccccc24)NC(=O)[C@H](CCCCN)NC(=O)[C@H](Cc2cnc[nH]2)NC(=O)[C@H]([C@@H](C)O)NC(=O)[C@H](CCCNC(=N)N)NC(=O)[C@H](CO)NC3=O)NC(=O)[C@H](CCCCN)NC(=O)[C@H](CC(=O)O)NC(=O)[C@H](CC(N)=O)NC(=O)[C@H](CC(=O)O)NC(=O)[C@@H]2CCCN2C1=O [SEQ ID NO: 63] (H-DCLRFMRKCIPDNDKCCRPNLVCSRTHKWCKYVF-NH2; disulfide 2-17, 9-23, 16-30) | – | 5000 | 20100 | 210 | 230 | – | – |
| CC[C@H](C)[C@@H]1NC(=O)[C@@H]2CSSC[C@@H]3NC(=O)[C@H](C(C)C)NC(=O)[C@H](CC(C)C)NC(=O)[C@H](CC(N)=O)NC(=O)[C@@H]4CCCN4C(=O)[C@H](CCCNC(=N)N)NC(=O)[C@H](CSSC[C@H](N)C(=O)N[C@@H](CC(C)C)C(=O)NCC(=O)N[C@@H](Cc4ccccc4)C(=O)N[C@@H](CCSC)C(=O)N[C@@H](CCCNC(=N)N)C(=O)N[C@@H](CCCCN)C(=O)N2)NC(=O)[C@H](CSSC[C@@H](C(=O)N[C@@H](CCCCN)C(=O)N[C@@H](Cc2ccc(O)cc2)C(=O)N[C@H](C(=O)N[C@@H](Cc2ccccc2)C(N)=O)C(C)C)NC(=O)[C@H](Cc2c[nH]c4ccccc24)NC(=O)[C@H](CCCCN)NC(=O)[C@H](Cc2c[nH]cn2)NC(=O)[C@H]([C@@H](C)O)NC(=O)[C@H](CCCNC(=N)N)NC(=O)[C@H](CO)NC3=O)NC(=O)[C@H](CCCCN)NC(=O)[C@H](CC(=O)O)NC(=O)[C@H](CC(N)=O)NC(=O)[C@H](CC(=O)O)NC(=O)[C@@H]2CCCN2C1=O [SEQ ID NO: 108] (H-CLGFMRKCIPDNDKCCRPNLVCSRTHKWCKYVF-NH2; disulfide 1-16, 8-22, 15-29) | – | – | – | – | – | 4940 | 70 |
| CC[C@H](C)[C@@H]1NC(=O)[C@@H]2CSSC[C@@H]3NC(=O)[C@H](C(C)C)NC(=O)[C@H](CC(C)C)NC(=O)[C@H](CC(N)=O)NC(=O)[C@@H]4CCCN4C(=O)[C@H](CCCNC(=N)N)NC(=O)[C@H](CSSC[C@H](NC(=O)[C@@H](N)CC(=O)O)C(=O)N[C@@H](CC(C)C)C(=O)NCC(=O)N[C@@H](CC(C)C)C(=O)N[C@@H](CCSC)C(=O)N[C@@H](CCCNC(=N)N)C(=O)N[C@@H](CCCCN)C(=O)N2)NC(=O)[C@H](CSSC[C@@H](C(=O)N[C@@H](CCCCN)C(=O)N[C@@H](Cc2ccc(O)cc2)C(=O)N[C@H](C(=O)N[C@@H](Cc2ccccc2)C(N)=O)C(C)C)NC(=O)[C@H](Cc2c[nH]c4ccccc24)NC(=O)[C@H](CCCCN)NC(=O)[C@H](Cc2cnc[nH]2)NC(=O)[C@H]([C@@H](C)O)NC(=O)[C@H](CCCNC(=N)N)NC(=O)[C@H](CO)NC3=O)NC(=O)[C@H](CCCCN)NC(=O)[C@H](CC(=O)O)NC(=O)[C@H](CC(N)=O)NC(=O)[C@H](CC(=O)O)NC(=O)[C@@H]2CCCN2C1=O [SEQ ID NO: 267] (H-DCLGLMRKCIPDNDKCCRPNLVCSRTHKWCKYVF-NH2; disulfide 2-17, 9-23, 16-30) | 7 | – | 7400 | 170 | 300 | – | – |
| CC[C@H](C)[C@@H]1NC(=O)[C@@H]2CSSC[C@@H]3NC(=O)[C@H](C(C)C)NC(=O)[C@H](CC(C)C)NC(=O)[C@H](CC(N)=O)NC(=O)[C@@H]4CCCN4C(=O)[C@H](CCCNC(=N)N)NC(=O)[C@H](CSSC[C@H](NC(=O)[C@@H](N)CC(=O)O)C(=O)N[C@@H](CC(C)C)C(=O)NCC(=O)N[C@@H](C(C)C)C(=O)N[C@@H](CCSC)C(=O)N[C@@H](CCCNC(=N)N)C(=O)N[C@@H](CCCCN)C(=O)N2)NC(=O)[C@H](CSSC[C@@H](C(=O)N[C@@H](CCCCN)C(=O)N[C@@H](Cc2ccc(O)cc2)C(=O)N[C@H](C(=O)N[C@@H](Cc2ccccc2)C(N)=O)C(C)C)NC(=O)[C@H](Cc2c[nH]c4ccccc24)NC(=O)[C@H](CCCCN)NC(=O)[C@H](Cc2cnc[nH]2)NC(=O)[C@H]([C@@H](C)O)NC(=O)[C@H](CCCNC(=N)N)NC(=O)[C@H](CO)NC3=O)NC(=O)[C@H](CCCCN)NC(=O)[C@H](CC(=O)O)NC(=O)[C@H](CC(N)=O)NC(=O)[C@H](CC(=O)O)NC(=O)[C@@H]2CCCN2C1=O [SEQ ID NO: 272] (H-DCLGVMRKCIPDNDKCCRPNLVCSRTHKWCKYVF-NH2; disulfide 2-17, 9-23, 16-30) | 18 | – | 13200 | – | 1030 | – | 710 |
| CC[C@H](C)[C@@H]1NC(=O)[C@@H]2CSSC[C@@H]3NC(=O)[C@H](C(C)C)NC(=O)[C@H](CC(C)C)NC(=O)[C@H](CC(N)=O)NC(=O)[C@@H]4CCCN4C(=O)[C@H](CCCCN(C)C)NC(=O)[C@H](CSSC[C@H](NC(=O)[C@@H](N)CC(=O)O)C(=O)N[C@@H](CC(C)C)C(=O)NCC(=O)N[C@@H](Cc4ccccc4)C(=O)N[C@@H](CCSC)C(=O)N[C@@H](CCCNC(=N)N)C(=O)N[C@@H](CCCCN)C(=O)N2)NC(=O)[C@H](CSSC[C@@H](C(=O)N[C@@H](CCCCN)C(=O)N[C@@H](Cc2ccc(O)cc2)C(=O)N[C@H](C(=O)N[C@@H](Cc2ccccc2)C(N)=O)C(C)C)NC(=O)[C@H](Cc2c[nH]c4ccccc24)NC(=O)[C@H](CCCCN)NC(=O)[C@H](Cc2cnc[nH]2)NC(=O)[C@H]([C@@H](C)O)NC(=O)[C@H](CCCNC(=N)N)NC(=O)[C@H](CO)NC3=O)NC(=O)[C@H](CCCCN)NC(=O)[C@H](CC(=O)O)NC(=O)[C@H](CC(N)=O)NC(=O)[C@H](CC(=O)O)NC(=O)[C@@H]2CCCN2C1=O [[K(Me2)18]GpTx-1(1-34)] (H-DCLGFMRKCIPDNDKCC[Lys(Me2)]PNLVCSRTHKWCKYVF-NH2; disulfide 2-17, 9-23, 16-30) | – | 10000 | – | – | – | – | – |
